This is an account of results in PMC2990756, “Quantitative High-Throughput Screening Identifies 8-Hydroxyquinolines as Cell-Active Histone Demethylase Inhibitors” (PLoS ONE, 2010).

Data set [1] concerns the target T1, JMJD2A (Homo sapiens, UniProt O75164).
T1 sequence (O75164 1-1064): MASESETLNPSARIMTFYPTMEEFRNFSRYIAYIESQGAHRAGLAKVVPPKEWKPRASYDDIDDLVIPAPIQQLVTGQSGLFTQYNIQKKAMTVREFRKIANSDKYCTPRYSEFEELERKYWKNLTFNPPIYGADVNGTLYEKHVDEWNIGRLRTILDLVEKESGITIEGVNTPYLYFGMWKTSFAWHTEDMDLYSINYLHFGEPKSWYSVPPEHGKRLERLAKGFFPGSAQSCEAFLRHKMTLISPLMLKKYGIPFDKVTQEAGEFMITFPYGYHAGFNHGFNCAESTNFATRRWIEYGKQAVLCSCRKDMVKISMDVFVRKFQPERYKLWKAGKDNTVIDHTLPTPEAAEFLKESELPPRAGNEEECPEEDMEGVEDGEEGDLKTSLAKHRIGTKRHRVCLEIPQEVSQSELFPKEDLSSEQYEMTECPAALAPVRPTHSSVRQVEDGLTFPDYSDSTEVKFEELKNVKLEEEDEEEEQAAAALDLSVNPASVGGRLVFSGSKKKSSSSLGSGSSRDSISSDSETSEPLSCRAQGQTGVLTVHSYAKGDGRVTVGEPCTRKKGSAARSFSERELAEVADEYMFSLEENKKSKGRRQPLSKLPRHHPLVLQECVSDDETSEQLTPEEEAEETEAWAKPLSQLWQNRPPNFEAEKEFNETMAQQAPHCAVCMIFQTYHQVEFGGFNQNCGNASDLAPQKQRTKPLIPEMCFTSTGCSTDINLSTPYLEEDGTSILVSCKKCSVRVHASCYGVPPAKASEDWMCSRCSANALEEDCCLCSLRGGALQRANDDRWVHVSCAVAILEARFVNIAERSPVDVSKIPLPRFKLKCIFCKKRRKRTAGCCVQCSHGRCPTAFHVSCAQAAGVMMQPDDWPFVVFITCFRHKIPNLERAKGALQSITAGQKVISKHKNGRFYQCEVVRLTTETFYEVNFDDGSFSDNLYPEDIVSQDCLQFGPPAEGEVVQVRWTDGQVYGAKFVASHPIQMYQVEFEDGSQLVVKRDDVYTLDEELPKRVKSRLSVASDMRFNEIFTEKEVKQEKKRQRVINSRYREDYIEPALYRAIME
The data set is described as follows: Cellular demethylase assay: H3K9me3 immunofluorescence in HeLa cells overexpressing Flag-JMJD2A. The conditions noted are these: 24 hr.
From the text: Therefore, in order to automate this process a series of images were collected for each treatment on a standard epifluorescence microscope ( Figure 5A ) and then submitted to CellProfiler Software for analysis [29]. CellProfiler was configured to analyze the images for DAPI signal, a DNA stain, enabling the program to identify the location of individual cells and create a boundary that delineates the volume of the nuclear compartment. As not all cells in a given field are transfected, the Flag-JMJD2A-expressing cells were identified by quantifying the immunofluoresence signal resulting from the Flag antibody staining and using the mock transfected cells as a baseline for the signal intensity of non-transfected cells. Once the transfected cells were identified, the nuclear H3K9me3 immunofluorescence signal for each cell was quantified by CellProfiler. The levels of H3K9me3 staining intensity were analyzed in the DMSO vehicle treated or inhibitor treated samples. As a control and a means of determining maximal possible inhibition of demethylase activity, cells expressing the JMJD2A H188A catalytically deficient mutant were also quantified in each experiment. […] For each treatment a minimum of 400 transfected cells was analyzed and the final values of inhibition were derived from inhibition experiments carried out on three separate days (biological triplicates). […]

The target of data set [2] is T2, JMJD2E (KDM4E) (Homo sapiens, UniProt B2RXH2).
T2 construct: The catalytic domain of human JMJD2E (residues 1–337); His6 (N); made in house; host or cells: E. coli
T2 sequence (B2RXH2 1-337): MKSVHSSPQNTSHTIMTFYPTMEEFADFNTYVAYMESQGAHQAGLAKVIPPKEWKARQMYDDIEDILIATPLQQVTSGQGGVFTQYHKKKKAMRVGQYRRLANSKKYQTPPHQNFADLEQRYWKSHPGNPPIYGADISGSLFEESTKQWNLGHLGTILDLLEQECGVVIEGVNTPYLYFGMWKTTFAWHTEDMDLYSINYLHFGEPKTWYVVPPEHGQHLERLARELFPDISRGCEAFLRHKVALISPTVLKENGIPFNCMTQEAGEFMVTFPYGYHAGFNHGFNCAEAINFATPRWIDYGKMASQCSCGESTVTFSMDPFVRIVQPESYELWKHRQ
The data set is described as follows: qHTS fluorescence FDH-coupled JMJD2E demethylase assay. Type of data set: biochemical. The following applies: Figure 3; substituted 8-hydroxyquinolines against JMJD2E; read-out: IC50 /μM (qHTS IC50, FDH-coupled assay). In general terms: In qHTS, concentration-response curves come from the screen itself.

Data set [3] deals with T3, JMJD2E (Homo sapiens, UniProt B2RXH2).
T3 sequence (B2RXH2 1-337): T2 sequence (B2RXH2 1-337)
The data set is described as follows: MALDI-TOF MS demethylation assay, JMJD2E.
Method: Initially, JMJD2, Fe(II), ascorbate and inhibitors were pre-incubated for 15 min prior to the addition of peptide and 2OG. The reaction was incubated for 30 min before 1∶1 quenching with methanol followed by addition of four volumes of 20 mM triammonium citrate. […] The diluted assay mixture (1 µL) from JMJD2 and PHD2 assays were mixed with 1 µL of α-cyano-4-hydroxycinnamic acid and 1 µL of FIH assay mixture was mixed with 1 µL of sinapinic acid matrix, and assessed by matrix-assisted laser desorption/ionization-time of flight (MALDI-TOF).

Data set [4] deals with T4, JMJD2A (Homo sapiens, UniProt O75164).
T4 sequence (O75164 1-359 limits assumed): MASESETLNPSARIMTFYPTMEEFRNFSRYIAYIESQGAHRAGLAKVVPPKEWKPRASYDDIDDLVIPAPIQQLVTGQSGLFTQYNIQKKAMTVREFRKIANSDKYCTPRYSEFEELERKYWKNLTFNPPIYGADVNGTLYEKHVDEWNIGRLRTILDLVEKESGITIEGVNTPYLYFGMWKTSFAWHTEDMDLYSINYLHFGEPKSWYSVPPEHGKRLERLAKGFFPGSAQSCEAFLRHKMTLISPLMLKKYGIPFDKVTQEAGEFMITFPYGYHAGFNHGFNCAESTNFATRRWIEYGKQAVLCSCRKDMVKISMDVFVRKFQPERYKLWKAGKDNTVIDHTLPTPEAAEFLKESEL
The data set is described as follows: MALDI-TOF MS demethylation assay, JMJD2A.
Method: (§1) JMJD2 assays were carried out as reported [13]. […] Initially, JMJD2, Fe(II), ascorbate and inhibitors were pre-incubated for 15 min prior to the addition of peptide and 2OG. The reaction was incubated for 30 min before 1∶1 quenching with methanol followed by addition of four volumes of 20 mM triammonium citrate. PHD2 and FIH assays were carried out as described [41], [42] with minor modifications. PHD2 assay consisted of PHD2 (1 µM), FAS (10 µM), SA (100 µM), 2OG (60 µM) and HIF-1α^556–574CODD peptide (50 µM), in 50 mM HEPES (pH 7.5) with varying concentrations of inhibitors (final DMSO concentration was 5%). Initially, PHD2, Fe(II), ascorbate and inhibitors were pre-incubated for 15 min prior to the addition of peptide and 2OG. The reaction was incubated for 30 min before 1∶1 quenching with 1% TFA followed by addition of three volumes of 20 mM triammonium citrate. FIH assay consisted of FIH (1 µM), FAS (10 µM), SA (100 µM), 2OG (100 µM) and HIF-1α^786–826CAD peptide (100 µM), in 50 mM HEPES (pH 7.5) with varying concentrations of inhibitors (final DMSO concentration was 5%). […] The diluted assay mixture (1 µL) from JMJD2 and PHD2 assays were mixed with 1 µL of α-cyano-4-hydroxycinnamic acid and 1 µL of FIH assay mixture was mixed with 1 µL of sinapinic acid matrix, and assessed by matrix-assisted laser desorption/ionization-time of flight (MALDI-TOF).

Data set [5] deals with FIH (Homo sapiens, UniProt Q9NWT6). The data set is described as follows: MALDI-TOF MS peptide hydroxylation assay, FIH.
Method: as §1
For data set [6], the target named is PHD2 (catalytic domain) (Homo sapiens, UniProt Q9GZT9). The data set is described as follows: MALDI-TOF MS peptide hydroxylation assay, PHD2.
Method: as §1
Data set [7] can be described thus: Cytotoxicity, resazurin/resorufin (CellTiter-Blue). The data set is classed as cell-based. The conditions noted are these: human, HeLa cells. A general note: Resazurin is reduced to fluorescent resorufin, in cell work by metabolically active cells.
Method: Cytotoxicity testing of the 5-carboxy-8HQ on HeLa cells was conducted with the resazurin/resorufin system for cellular metabolism.
Cytotoxicity testing was done with CellTiter-Blue (Promega) according to the manufacturer's directions.

Sequence of FIH (Q9NWT6 whole entry, the tested form may be a part): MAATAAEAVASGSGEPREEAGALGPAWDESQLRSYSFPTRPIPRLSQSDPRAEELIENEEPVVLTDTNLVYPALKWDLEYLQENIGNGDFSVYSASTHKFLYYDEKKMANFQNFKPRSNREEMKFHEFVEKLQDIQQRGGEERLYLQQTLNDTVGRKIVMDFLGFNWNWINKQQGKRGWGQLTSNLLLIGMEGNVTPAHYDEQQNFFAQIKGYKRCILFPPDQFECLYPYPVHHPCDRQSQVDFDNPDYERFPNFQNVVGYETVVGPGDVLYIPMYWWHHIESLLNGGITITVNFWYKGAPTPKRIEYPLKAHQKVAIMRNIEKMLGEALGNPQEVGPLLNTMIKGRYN
Sequence of PHD2 (catalytic domain) (Q9GZT9 181-426 limits assumed): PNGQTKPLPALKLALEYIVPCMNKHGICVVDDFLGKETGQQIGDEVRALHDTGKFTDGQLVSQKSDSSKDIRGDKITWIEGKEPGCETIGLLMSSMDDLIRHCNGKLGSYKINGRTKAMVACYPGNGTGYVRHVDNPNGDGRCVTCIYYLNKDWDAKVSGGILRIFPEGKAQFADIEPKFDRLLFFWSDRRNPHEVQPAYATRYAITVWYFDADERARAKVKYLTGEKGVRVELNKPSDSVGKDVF

With `COC(=O)CNC(=O)C(=O)OC` [DMOG, dimethyloxalylglycine], the “JMJD2A demethylase activity remaining” value in data set [1] (2.5mM treatment) is given as “approximately 20%”.

For `Oc1ccc(CNc2ccccc2F)c2cccnc12` [SID 852641], the IC50 in data set [2] amounted to 1.1 µM; in data set [3], 6 µM; in data set [4], 8.2 µM; in data set [5], 19.6 µM; in data set [6], 14.4 µM.

Take `O=C(O)c1ccc(O)c2ncccc12` [SID 85736331, 5-carboxy-8-hydroxyquinoline]: the IC50 in data set [7] came to 292 µM; in data set [5], 20.5 µM.

With `COC(=O)c1ccnc(C(=O)OC)c1` [dimethyl-2,4-PDCA], the “JMJD2A demethylase activity remaining” value in data set [1] (1mM treatment) is recorded as “approximately 35%”.
